Experimental data published in US9381255B2, “Formulations comprising T3 nanoparticles” (Avant Garde Therapeutics and Technologies LLC, priority 2009, dated 2016).

Test: Blood levels of T3 after intraperitoneal administration in mice
Assay type: in vivo
Experimental: This T3-nanoparticle is administered intraperitoneally in mice.

SMILES: N[C@@H](Cc1cc(I)c(Oc2ccc(O)c(I)c2)c(I)c1)C(=O)O [free T3, triiodothyronine]
- T3 blood levels (intraperitoneal injection, FIG. 8B): increased T3 blood levels which were followed by a subsequent leveling off
- amount of T3 remaining in the blood over time (intraperitoneal, FIG. 8A): A lesser amount of T3 remains over time
